Where two headings read alike, the source gives them in different places.

The text below walks through data of patent publication US6635245B1, “Strain of bacillus for controlling plant diseases” (priority 1999, dated 2003).

Holding throughout (assay type): in vivo
One experiment concerns Phytophthora infestans. The settings on record: tomato seedlings, 0-5 scale.
A further experiment deals with Bremia lactucae. Description: Plant test, downy mildew of lettuce (chemically-resistant strain). The settings on record: lettuce seedlings, 0 to 5 scale.
A further experiment concerns Peronospora parasitica. Nature of the experiment: Plant test, downy mildew of Brassica. The settings on record: Brassica seedlings, 0 to 5 scale.
For a further experiment, the system named is Uncinula necator. Description: Plant test, grape powdery mildew. The settings on record: grape seedlings (Chardonnay); 25 ppm; 0 to 5 scale. As for the experimental part:
Grape seedlings (Chardonnay) were grown in two inch pots until the 6-9 true leaf stage. The culture of powdery mildew was maintained on grape seedlings at 22-26° C. under a 14 hour photoperiod. All but the youngest 2-4 leaves are removed. The NRRL Accession No. B-30087, the chemical fungicide (Rally®, myclobutanil at 25 ppm) and the water check are applied to runoff as above for the other pathogens tested. Four to five replications are used for each treatment. To inoculate with powdery mildew, leaves with mildew on maintenance seedlings are removed with scissors and each plant is inoculated individually. The surface of the maintenance seedling is gently brushed with a paintbrush so that spores are deposited onto the upper surface of the test plants. The procedure is performed using a 3× lighted magnification lens to assure all plants are getting equivalent inoculum. Flats with pots are placed in the dark for 16-24 hours at 20-24° C. Flats are kept at 22-26° C. with a 14 hour photoperiod for an additional 9-11 days until the test is read. […] The result using NRRL Accession No. B-30087 is shown below in Table 5.

The test system of the next experiment is Botrytis cinerea. Description: B-30087 and B-21661 whole broths alone and together, gray mold on pepper. The settings on record: 20 ppm, 0 to 5 scale. On the procedure:
A strain of B. pumilus, NRRL B-30087 was tested with B. subtilis, NRRL B-21661, to determine if the fungicidal effect was greater if used together, than if each strain were used alone. Each strain was grown in a 10 liter or 5,000 liter fermenter, in a soy flour-based medium for approximately 50 hours. Each strain was tested as a whole broth culture against Botrytis cinerea gray mold on pepper, and Peronospora parasitica downy mildew on Brassica. The whole broths were tested at 1X, 1/2X and 1/8X. The two strains were then tested in various combinations with each other at 1/2X, 1/4X and 1/8X. A water check (control) and a chemical fungicide (BREAK® at 20 ppm) were also tested for comparison.

In another experiment the test system is Uromyces phaseoli. Description: Plant test, bean rust on snap bean. The note with it: snap bean seedlings; 40 ppm; 0 to 5 scale.

Regarding `CO/C=C(/C(=O)OC)c1ccccc1Oc1cc(Oc2ccccc2C#N)ncn1` [Quadris, azoxystrobin], in the experiment with Phytophthora infestans (62.5 ppm), the “Score Rep 1” value was found to be 0.0, the “Score Rep 2” value was found to be 0.5, the “Score Rep 3” value is 0.0 and the “Score Rep 4” value amounted to 0.5. Also, in the experiment on Phytophthora infestans (62.5 ppm), the “Score Rep 5” value was 0.0. Moreover, in the experiment with Phytophthora infestans (125 ppm), the “Score Rep 1” value is 0.0, the “Score Rep 2” value is given as 0.0, the “Score Rep 3” value worked out at 0.0 and the “Score Rep 4” value is 0.0. The “Score Rep 5” value in the experiment with Phytophthora infestans (125 ppm) was 0.0.
As to `CCO[PH](=O)O` [Aliette, fosetyl-al], in the experiment with Bremia lactucae (240 ppm), the “Score Rep 1” value amounted to 5.0 and the “Score Rep 2” value is 3.0. Further, in the experiment with Peronospora parasitica (240 ppm), the “Score Rep 1” value was determined as 5.0 and the “Score Rep 2” value was 3.0.
Turning to `CCCCC(C#N)(Cn1cncn1)c1ccc(Cl)cc1` (stereo not drawn) [Rally, myclobutanil], in the experiment with Uncinula necator, the “Score Rep 1” value came to 0.0, the “Score Rep 2” value was found to be 0.0, the “Score Rep 3” value came out at 0.0 and the “Score Rep 4” value turned out to be 0.0.
Regarding `COCC(=O)N(c1c(C)cccc1C)C(C)C(=O)OC` (stereo not drawn) [Ridomil, metalaxyl], in the experiment on Bremia lactucae (125 ppm), the “Score Rep 1” value came out at 3.0 and the “Score Rep 2” value was determined as 3.0. In the experiment with Peronospora parasitica (125 ppm), the “Score Rep 1” value turned out to be 4.0, the “Score Rep 2” value is given as 4.0 and the “Score Rep 3” value is recorded as 4.0.
Regarding `CCCC1COC(Cn2cncn2)(c2ccc(Cl)cc2Cl)O1` (stereo not drawn) [Break ®, propiconazole], in the experiment on Botrytis cinerea, the “Botrytis cinerea Average disease rating (4 plants)” value is given as 0.2. Also, in the experiment with Uromyces phaseoli, the “Score Rep 1” value turned out to be 0.0, the “Score Rep 2” value is given as 0.0 and the “Score Rep 3” value came out at 0.5.
